These results are taken from patent US5684024A, “Pyrazole dimers compositions and methods for treating influenza” (priority 1996, dated 1997).

In experiment [1] the target is influenza A/WSN virus transcriptase (Influenza A virus, UniProt P03427+P03430+P15659). Description: biochemical. As to conditions: read-out: IC50, concentration required to achieve 50% inhibition of influenza A/WSN virus transcriptase activity.
In the next experiment the test system is influenza A/WSN. Description: Plaque reduction in MDCK cells, influenza A/WSN. As to conditions: 48 h, read-out: IC50, […], A/WSN.
The next experiment has as its system influenza A/Victoria. Description: Plaque reduction in MDCK cells, influenza A/Victoria. As to conditions: 48 h, read-out: IC50, […], A/Victoria.

Experimental for influenza A/Victoria: Compounds were evaluated for antiviral activity against influenza A/WSN by plaque reduction in Madin Darby canine kidney (MDCK) cells. Duplicate monolayers of MDCK cells in 6 well plates were washed free of protein-containing media, infected with 50-100 plaque-forming units of virus (0.4 ml volume), and incubated at 37° C. for 60 min. After aspiration of the virus inoculum, a 0.6% agarose overlay (3 ml) containing Eagle minimal essential media, trypsin (8 μg/ml), and the appropriate drug dilution (final concentration of 1% DMSO) was added to the cell monolayer. Plates were incubated at 37° C. in a humidified atmosphere of 5% CO2 in air. After 48 h, monolayers were fixed with glutaraldehyde, stained with 0.1% crystal violet and the plaques were counted. The percentage of plaque inhibition relative to the infected control (no drug) plates were calculated for each drug concentration and the 50% inhibitory concentration (IC50) was determined.

As to `CC(=O)C1=NN(c2ccc(C(=O)O)cc2C)C(=O)C1=C1C(=O)N(c2ccc(C(=O)O)cc2C)N=C1C(C)=O` [Example 4, 3,3'-Bis[3-Methyl-4-(2-hydroxy-4-acetylpyrazolyl)-benzoic Acid]], the IC50 was 200 nM in experiment [1], 50000 nM in the experiment on influenza A/WSN and 25000 nM in the experiment on influenza A/Victoria.
On to `CC(=O)C1=NN(c2ccc(C(=O)O)c(Cl)c2)C(=O)C1=C1C(=O)N(c2ccc(C(=O)O)c(Cl)c2)N=C1C(C)=O` [Example 6], for which, in experiment [1], the IC50 stood at 800 nM.
The same measure, in the same setting: the figure for `CC(=O)C1=NN(c2cccc(C(=O)O)c2)C(=O)C1=C1C(=O)N(c2cccc(C(=O)O)c2)N=C1C(C)=O` [Example 8] is 350 nM.
Same read-out and setting: the value for `CC(=O)C1=NN(c2ccc(Cl)c(C(=O)O)c2)C(=O)C1=C1C(=O)N(c2ccc(Cl)c(C(=O)O)c2)N=C1C(C)=O` [Example 9] was 250 nM.
Take `CC(=O)C1=NN(c2ccc(C(=O)O)cc2)C(=O)C1=C1C(=O)N(c2ccc(C(=O)O)cc2)N=C1C(C)=O` [Example 7]: the IC50 was found to be 500 nM in experiment [1], 50000 nM with influenza A/WSN and 30000 nM in the experiment with influenza A/Victoria.
On to `CC(=O)C1=NN(c2cc(C(=O)O)ccc2C)C(=O)C1=C1C(=O)N(c2cc(C(=O)O)ccc2C)N=C1C(C)=O` [Example 10], for which the IC50 in experiment [1] came to 350 nM.
The same measure, in the same setting: the figure for `COc1cc(C(=O)O)ccc1N1N=C(C(C)=O)C(=C2C(=O)N(c3ccc(C(=O)O)cc3OC)N=C2C(C)=O)C1=O` [Example 5] is 1200 nM.
